Legend:
[1] = Cytotoxicity against human CEM cells assessed as reduction in cell viability incubated for 4 to 5 days by light microscopic analysis; type: toxicity, cell-based; settings: CEM cells (CCRF-CEM), time 4-5 day
[2] = Chemical stability of the compound in phosphate buffer saline assessed as half life at pH 7.3 by HPLC analysis; type: physicochemical; settings: phosphate buffered saline
[3] = Prodrug conversion in human CEM/0 cell extract assessed as metabolite formation by measuring half life by HPLC analysis; type: ADME; settings: ccrf-cem
[4] = Prodrug conversion in pH 7.3 phosphate buffer assessed as metabolite formation by measuring half life in presence of pig liver esterase by HPLC analysis; type: ADME; settings: isolated protein
[5] = Retention time of the compound by HPLC analysis; type: physicochemical
[6] = Selectivity index, ratio of CC50 for human CEM cells to EC50 for HIV-2 ROD infected in thymidine kinase-deficient human CEM cells; type: toxicity; settings: read-out: Ratio CC50/EC50
[7] = tested on: Human immunodeficiency virus 1; assay: Antiviral activity against HIV-1 HE infected in wild-type human CEM/0 cells assessed as inhibition of virus-induced cytopathic effect incubated for 4 to 5 days by light microscopic analysis; type: functional, organism-based; settings: Human immunodeficiency virus 1, HE, CCRF-CEM
[8] = tested on: Human immunodeficiency virus 2; assay: Antiviral activity against HIV-2 ROD infected in thymidine kinase-deficient human CEM cells assessed as inhibition of virus-induced cytopathic effect incubated for 4 to 5 days by light microscopic analysis; type: functional, organism-based; settings: Human immunodeficiency virus 2, ROD, CCRF-CEM
[9] = tested on: Human immunodeficiency virus 2; assay: Antiviral activity against HIV-2 ROD infected in wild-type human CEM/0 cells assessed as inhibition of virus-induced cytopathic effect incubated for 4 to 5 days by light microscopic analysis; type: functional, organism-based; settings: Human immunodeficiency virus 2, ROD, CCRF-CEM

**Q.** For `CCCCCCCCCCCCCCCCCCP(=O)(OCc1ccc(OC(=O)CCCC)cc1)OP(=O)(O)OC[C@@H]1C=C[C@H](n2cc(C)c(=O)[nH]c2=O)O1.N` (stereo not given in full), which CC50 [1] is on record?
**A.** Its CC50 is 14600 nM.

**Q.** And the half-life [2]?
**A.** Its half-life is > 83.3 days.

**Q.** And the t1/2 [3]?
**A.** Its t1/2 is > 0.33 days.

**Q.** What about the t1/2 [4] of the same compound?
**A.** Its t1/2 is 0.0104 days.

**Q.** And the Retention_time [5]?
**A.** The Retention_time was 20 min.

**Q.** What about the selectivity ratio [6] of the same compound?
**A.** Its selectivity ratio is 7290.

**Q.** What about the EC50 [7] of the same compound?
**A.** Its EC50 is 44 nM.

**Q.** And the EC50 [8]?
**A.** The EC50 was 2 nM.

**Q.** And the EC50 [9]?
**A.** Its EC50 is 42 nM.

**Q.** For `CCCCCCCCCCCCP(=O)(OCc1ccc(OC(=O)CCCC)cc1)OP(=O)(O)OC[C@@H]1C=C[C@H](n2cc(C)c(=O)[nH]c2=O)O1.N` (stereo not given in full), which CC50 [1] is on record?
**A.** The CC50 was 66700 nM.

**Q.** What about the half-life [2] of the same compound?
**A.** Its half-life is 29.2 days.

**Q.** What about the Drug metabolism [3] of the same compound?
**A.** Its Drug metabolism is “Metabolite_Notdetected”.

**Q.** What about the Drug metabolism [4] of the same compound?
**A.** Its Drug metabolism is “Metabolite_Notdetected”.

**Q.** What about the Retention_time [5] of the same compound?
**A.** Its Retention_time is 16.3 min.

**Q.** What about the selectivity ratio [6] of the same compound?
**A.** The selectivity ratio was 88.

**Q.** What about the EC50 [7] of the same compound?
**A.** The EC50 was 560 nM.

**Q.** What about the EC50 [8] of the same compound?
**A.** The EC50 was 760 nM.

**Q.** And the EC50 [9]?
**A.** The EC50 was 420 nM.

**Q.** With `CCCCCCCCCCCCOP(=O)(OCc1ccc(OC(=O)CCCC)cc1)OP(=O)(O)OC[C@@H]1C=C[C@H](n2cc(C)c(=O)[nH]c2=O)O1.N` (stereo not given in full) as the compound, how does the CC50 [1] read?
**A.** Its CC50 is > 100000 nM.

**Q.** What about the half-life [2] of the same compound?
**A.** Its half-life is 11.9 days.

**Q.** And the t1/2 [3]?
**A.** The t1/2 was 0.0458 days.

**Q.** What about the t1/2 [4] of the same compound?
**A.** Its t1/2 is < 0.00042 days.

**Q.** And the Retention_time [5]?
**A.** The Retention_time was 16.6 min.

**Q.** What about the selectivity ratio [6] of the same compound?
**A.** The selectivity ratio was > 72.

**Q.** What about the EC50 [7] of the same compound?
**A.** Its EC50 is 390 nM.

**Q.** And the EC50 [8]?
**A.** The EC50 was 1390 nM.

**Q.** What about the EC50 [9] of the same compound?
**A.** The EC50 was 360 nM.

**Q.** Which CC50 [1] does the source give for `CCCCC(=O)Oc1ccc(COP(=O)(OC)OP(=O)(O)OC[C@@H]2C=C[C@H](n3cc(C)c(=O)[nH]c3=O)O2)cc1.N` (stereo not given in full) here?
**A.** Its CC50 is > 100000 nM.

**Q.** And the half-life [2]?
**A.** The half-life was 3.5 days.

**Q.** What about the Drug metabolism [3] of the same compound?
**A.** The Drug metabolism was “Metabolite_Notdetected”.

**Q.** And the Drug metabolism [4]?
**A.** The Drug metabolism was “Metabolite_Notdetected”.

**Q.** What about the Retention_time [5] of the same compound?
**A.** Its Retention_time is 11.3 min.

**Q.** And the selectivity ratio [6]?
**A.** Its selectivity ratio is > 11.

**Q.** What about the EC50 [7] of the same compound?
**A.** Its EC50 is 430 nM.

**Q.** What about the EC50 [8] of the same compound?
**A.** Its EC50 is 8950 nM.

**Q.** What about the EC50 [9] of the same compound?
**A.** Its EC50 is 410 nM.

**Q.** Which CC50 [1] does the source give for `CCCCCCCCCCCC(=O)Oc1ccc(COP(=O)(OCCCC)OP(=O)(O)OC[C@@H]2C=C[C@H](n3cc(C)c(=O)[nH]c3=O)O2)cc1.N` (stereo not given in full) here?
**A.** Its CC50 is 83100 nM.

**Q.** And the half-life [2]?
**A.** Its half-life is 11.6 days.

**Q.** And the Drug metabolism [3]?
**A.** The Drug metabolism was “Metabolite_Notdetected”.

**Q.** And the Drug metabolism [4]?
**A.** The Drug metabolism was “Metabolite_Notdetected”.

**Q.** What about the Retention_time [5] of the same compound?
**A.** Its Retention_time is 16.6 min.

**Q.** What about the selectivity ratio [6] of the same compound?
**A.** Its selectivity ratio is 111.

**Q.** What about the EC50 [7] of the same compound?
**A.** Its EC50 is 230 nM.

**Q.** What about the EC50 [8] of the same compound?
**A.** The EC50 was 750 nM.

**Q.** And the EC50 [9]?
**A.** Its EC50 is 53 nM.
